“Also recorded” adds a separate entry of the source.
Experiments:
[1] = tested on: Shank3B−/− mice; assay: Three-chamber social novelty preference test; format: in vivo; conditions: bromide 250 mg/kg i.p. daily
Method: (§1) Sodium bromide (anhydrous, Sigma-Aldrich, Saint-Quentin, France) dissolved in saline solution (NaCl, 0.9%) at the dose of 250 or 500 mg/kg, or vehicle (NaCl, 0.9%), was administered intraperitoneally once a day for 19 days in a volume of 20 ml/kg. On testing days, bromide was administered 30 min before behavioural assays. Bumetanide (Tocris, provided by Bio-Techne, Lille, France) dissolved in NaCl 0.9% at the dose of 0.5 mg/kg (Deidda et al, 2015) or vehicle was administered intraperitoneally once a day for 19 days in a volume of 20 ml/kg.
(§2) Behavioural assays started after a week of daily bromide (or bumetanide) treatment.
Three-chamber social novelty preference test.

[2] = tested on: Oprm1−/− mice; assay: Novelty-suppressed feeding test; conditions: for latency to feed: Oprm1 wild-type and null mice, bromide 250, 500 mg/kg
[3] = tested on: Fmr1−/− mice; assay: Motor stereotypies scoring; format: in vivo; conditions: bromide 250 mg/kg i.p. daily
Method: as §1, §2

[4] = tested on: Shank3B−/− mice; assay: Motor stereotypies scoring; format: in vivo; conditions: bromide 250 mg/kg i.p. daily
Method: as §1, §2

[Br-].[Na+] [bromide, Sodium bromide]
number of close contacts with the mouse versus the toy ([1]; Shank3B line): no significant effect
preferential time spent in the compartment with the mouse versus the toy ([1]; Shank3B line): no significant effect
duration of close contacts with the mouse versus the toy ([1]; Shank3B−/− mice): increased; also recorded: restored
preference in time spent in close contact with the mouse versus the toy ([1]; Shank3B−/− mice): increased; also recorded: restored
food intake in home cage ([2]; Example 2, Oprm1 mutants): increased food intake in mutants
latency to feed ([2]; Example 2): drastically reduced
latency to feed ([2]; Example 2, listed as Bromide): decreased in wild-type, and normalized in mu opioid receptor null mice
gender influence on latency to feed ([2]; Example 2, bromide 250 mg/kg): more effective in males than in females
dose at which the maximal effect on latency to feed was reached ([2]; Example 2, female Oprm1 null mice): 500 mg/kg
food intake in home cage ([2]; Example 2, female wild-type animals, bromide 250 mg): ate more than saline-treated animals
dose at which the maximal effect on latency to feed was reached ([2]; Example 2, male Oprm1 null mice): 250 mg/kg
feeding latency ([2]; Oprm1−/− mice, bromide, all three doses (125, 250, 500 mg/kg)): efficiently reduced the feeding latency to wild-type level; also recorded: normalized
behavioural signs of anxiety (overall) ([2]; Oprm1−/− mice, marble burying and novelty-suppressed feeding, bromide 125, 250, 500 mg/kg): efficiently reduced; also recorded: relieved
food intake back in the home cage ([2]; wild-type and mutant mice, bromide 125, 250, 500 mg/kg i.p. daily): increased
number of rearing, grooming or burying episodes ([3]; Fmr1 knockout and wild-type): no effect
motor stereotypies (overall) ([3]; Fmr1−/− mice): efficiently reduced; also recorded: relieves
number of circling episodes ([3]; Fmr1−/− mice): normalized; also recorded: reduced
number of shakes ([3]; Fmr1−/− mice): normalized; also recorded: reduced
duration of burying events ([3]; all animals (Fmr1 line)): reduced
time spent burying ([3]; all animals (Fmr1 line)): reduced
number of rearing episodes ([4]; Shank3B−/− and wild-type): no effect
motor stereotypies (overall) ([4]; Shank3B−/− mice): efficiently reduced; also recorded: relieves
number of circling episodes ([4]; Shank3B−/− mice): normalized; also recorded: reduced
number of grooming episodes ([4]; Shank3B−/− mice): normalized
number of shakes ([4]; Shank3B−/− mice): normalized; also recorded: reduced

Reference: patent US12036237B2, “Bromide source for use in treating autism spectral disorder” (INSERM (INSTITUT NATIONAL DE LA SANTE ET DE LA RECHERCHE …, priority 2016, dated 2024)
